What was measured:
Experiment in all cases: Postemergent herbicidal activity, greenhouse
Format in all cases: in vivo
[1] = test system: CYPES Cyperus esculentus L. (yellow nutsedge)
Description: (§1) Evaluation of Postemergent Herbicidal Activity. Seeds or nutlets of the desired test plant species were planted in Sun Gro Metro-Mix® 360 planting mixture, which typically has a pH of 6.0 to 6.8 and an organic matter content of about 30 percent, in plastic pots with a surface area of 64 square centimeters (cm^2). When required to ensure good germination and healthy plants, a fungicide treatment and/or other chemical or physical treatment was applied. The plants were grown for 7-21 days (d) in a greenhouse with an approximate 15 hour (h) photoperiod which was maintained at about 23-29° C. during the day and 22-28° C. during the night. Nutrients and water were added on a regular basis and supplemental lighting was provided with overhead metal halide 1000-Watt lamps as necessary. The plants were employed for testing when they reached the first or second true leaf stage.
(§2) A weighed amount, determined by the highest rate to be tested, of each test compound was placed in a 25 milliliter (mL) glass vial and was dissolved in 4 mL of a 97:3 volume per volume (v/v) mixture of acetone and dimethyl sulfoxide (DMSO) to obtain concentrated stock solutions. […] The concentrated stock solutions obtained were diluted with 20 mL of an aqueous mixture containing acetone, water, isopropyl alcohol, DMSO, Atplus 411F crop oil concentrate, and Triton® X-155 surfactant in a 48.5:39:10:1.5:1.0:0.02 v/v ratio to obtain spray solutions containing the highest application rates. Additional application rates were obtained by serial dilution of 12 mL of the high rate solution into a solution containing 2 mL of a 97:3 v/v mixture of acetone and DMSO and 10 mL of an aqueous mixture containing acetone, water, isopropyl alcohol, DMSO, Atplus 411F crop oil concentrate, and Triton X-155 surfactant in a 48.5:39:10:1.5:1.0:0.02 v/v ratio to obtain ½X, ¼X, ⅛X and 1/16X rates of the high rate. Compound requirements are based upon a 12 mL application volume at a rate of 187 liters per hectare (L/ha). Formulated compounds were applied to the plant material with an overhead Mandel track sprayer equipped with 8002E nozzles calibrated to deliver 187 L/ha over an application area of 0.503 square meters (m^2) at a spray height of 18 inches ([…]) above the average plant canopy height. Control plants were sprayed in the same manner with the solvent blank.
(§3) Treatments consisted of the methyl ester of 4-amino-3-chloro-6-(4-chloro-2-fluoro-3-methoxyphenyl)pyridine-2-carboxylic acid (Cmpd 1) as technical grade material and fluazifop-P-butyl (Fusilade® DX), haloxyfop-P-methyl (GALLANT® super), and quizalofop-P-ethyl (Assure® II) alone and in combination. The form of compound of formula (I) and fluazifop-P-butyl, haloxyfop-P-methyl, and quizalofop-P-ethyl were applied on an acid equivalent basis.
(§4) The treated plants and control plants were placed in a greenhouse as described above and watered by subirrigation to prevent wash-off of the test compounds. After 14 d, the condition of the test plants as compared with that of the untreated plants was determined visually and scored on a scale of 0 to 100 percent where 0 corresponds to no injury and 100 corresponds to complete kill.
(§5) Results of testing mixtures in accordance with this disclosure and of the components of the mixtures separately against various common weeds in greenhouse trials are reported in the following tables. The reported values are of percent (%) control or percent (%) injury, visually rated. Colby's equation was used to determine the herbicidal effects expected from the mixtures (Colby, S. R. Calculation of the synergistic and antagonistic response of herbicide combinations. Weeds 1967, 15, 20-22.).
(§6) More specifically, the following equation was used to calculate the expected activity of mixtures containing two active ingredients, A and B:
(§7) A=observed efficacy of active ingredient A at the same concentration as used in the mixture; B=observed efficacy of active ingredient B at the same concentration as used in the mixture. […]

[2] = test system: STEME Stellaria media (L.) Vill. (common chickweed)
Description: as §1, §2, §3, §4, §5, §6, §7

[3] = test system: VIOTR Viola tricolor L. (wild violet)
Description: as §1, §2, §3, §4, §5, §6, §7

[4] = test system: IPOHE Ipomoea hederacea (L.) Jacq. (ivyleaf momingglory)
Description: as §1, §2, §3, §4, §5, §6, §7

[5] = test system: BRSNW Brassica napus (winter oilseed rape)
Description: as §1, §2, §3, §4, §5, §6, §7

[6] = test system: AMARE Amaranthus retroflexus L. (redroot pigweed)
Description: as §1, §2, §3, §4, §5, §6, §7

[7] = test system: CHEAL Chenopodium album L. (common lambsquarters)
Description: as §1, §2, §3, §4, §5, §6, §7

[8] = test system: DIGSA Digitaria sanguinalis (L.) Scop. (large crabgrass)
Description: as §1, §2, §3, §4, §5, §6, §7

[9] = test system: HELAN Helianthus annuus L. (common sunflower)
Description: as §1, §2, §3, §4, §5, §6, §7

[10] = test system: ABUTH Abutilon theophrasti Medik. (velvetleaf)
Description: as §1, §2, §3, §4, §5, §6, §7

[11] = test system: GLXMA Glycine max (soybean)
Description: as §1, §2, §3, §4, §5, §6, §7

[12] = test system: AVEFA Avena fatua L. (wild oat)
Description: as §1, §2, §3, §4, §5, §6, §7

[13] = test system: EPHHL Euphorbia heterophylla L. (wild poinsettia)
Description: as §1, §2, §3, §4, §5, §6, §7

[14] = test system: SETFA Setaria faberi Herrm. (giant foxtail)
Description: as §1, §2, §3, §4, §5, §6, §7

[15] = test system: SORVU Sorghum vulgare (common sorghum)
Description: as §1, §2, §3, §4, §5, §6, §7

[16] = test system: CIRAR Cirsium arvense (L.) Scop. (Canada thistle)
Description: as §1, §2, §3, §4, §5, §6, §7

COC(=O)[C@@H](C)Oc1ccc(Oc2ncc(C(F)(F)F)cc2Cl)cc1 [Haloxyfop-P, haloxyfop-P-methyl]
Visual Growth Reduction (%) 14 DAA Obs ([1]; Haloxyfop-P 35 g ae/ha): 0% | Visual Growth Reduction (%) 14 DAA Obs ([1]; Haloxyfop-P 70 g ae/ha): 0% | Visual Growth Reduction (%) 14 DAA Obs ([1]; Haloxyfop-P 140 g ae/ha): 0% | Visual Growth Reduction (%) 14 DAA Obs ([2]; Haloxyfop-P 35 g ae/ha): 0% | Visual Growth Reduction (%) 14 DAA Obs ([2]; Haloxyfop-P 70 g ae/ha): 0% | Visual Growth Reduction (%) 14 DAA Obs ([2]; Haloxyfop-P 140 g ae/ha): 0% | Visual Growth Reduction (%) 14 DAA Obs ([3]; Haloxyfop-P 35 g ae/ha): 0% | Visual Growth Reduction (%) 14 DAA Obs ([3]; Haloxyfop-P 70 g ae/ha): 0% | Visual Growth Reduction (%) 14 DAA Obs ([3]; Haloxyfop-P 140 g ae/ha): 0% | Visual Growth Reduction (%) 14 DAA Obs ([4]; Haloxyfop-P 35 g ae/ha): 0% | Visual Growth Reduction (%) 14 DAA Obs ([4]; Haloxyfop-P 70 g ae/ha): 0% | Visual Growth Reduction (%) 14 DAA Obs ([4]; Haloxyfop-P 140 g ae/ha): 0% | Visual Growth Reduction (%) 14 DAA Obs ([5]; Haloxyfop-P 35 g ae/ha): 0% | Visual Growth Reduction (%) 14 DAA Obs ([5]; Haloxyfop-P 70 g ae/ha): 0% | Visual Growth Reduction (%) 14 DAA Obs ([5]; Haloxyfop-P 140 g ae/ha): 0% | Visual Growth Reduction (%) 14 DAA Obs ([6]; Haloxyfop-P 35 g ae/ha): 0% | Visual Growth Reduction (%) 14 DAA Obs ([6]; Haloxyfop-P 70 g ae/ha): 0% | Visual Growth Reduction (%) 14 DAA Obs ([6]; Haloxyfop-P 140 g ae/ha): 0% | Visual Growth Reduction (%) 14 DAA Obs ([7]; Haloxyfop-P 35 g ae/ha): 0% | Visual Growth Reduction (%) 14 DAA Obs ([7]; Haloxyfop-P 70 g ae/ha): 0% | Visual Growth Reduction (%) 14 DAA Obs ([7]; Haloxyfop-P 140 g ae/ha): 0%

CCCCOC(=O)[C@@H](C)Oc1ccc(Oc2ccc(C(F)(F)F)cn2)cc1 [Fluazifop-P, fluazifop-P-butyl]
Visual Growth Reduction (%) 14 DAA Obs ([8]; Fluazifop-P 52.5 g ae/ha): 70% | Visual Growth Reduction (%) 14 DAA Obs ([8]; Fluazifop-P 105 g ae/ha): 80% | Visual Growth Reduction (%) 14 DAA Obs ([8]; Fluazifop-P 210 g ae/ha): 85% | Visual Growth Reduction (%) 14 DAA Obs ([1]; Fluazifop-P 52.5 g ae/ha): 0% | Visual Growth Reduction (%) 14 DAA Obs ([1]; Fluazifop-P 105 g ae/ha): 0% | Visual Growth Reduction (%) 14 DAA Obs ([1]; Fluazifop-P 210 g ae/ha): 0% | Visual Growth Reduction (%) 14 DAA Obs ([9]; Fluazifop-P 52.5 g ae/ha): 0% | Visual Growth Reduction (%) 14 DAA Obs ([9]; Fluazifop-P 105 g ae/ha): 0% | Visual Growth Reduction (%) 14 DAA Obs ([9]; Fluazifop-P 210 g ae/ha): 0% | Visual Growth Reduction (%) 14 DAA Obs ([2]; Fluazifop-P 52.5 g ae/ha): 0% | Visual Growth Reduction (%) 14 DAA Obs ([2]; Fluazifop-P 105 g ae/ha): 0% | Visual Growth Reduction (%) 14 DAA Obs ([2]; Fluazifop-P 210 g ae/ha): 0% | Visual Growth Reduction (%) 14 DAA Obs ([10]; Fluazifop-P 52.5 g ae/ha): 0% | Visual Growth Reduction (%) 14 DAA Obs ([10]; Fluazifop-P 105 g ae/ha): 0% | Visual Growth Reduction (%) 14 DAA Obs ([10]; Fluazifop-P 210 g ae/ha): 0% | Visual Growth Reduction (%) 14 DAA Obs ([3]; Fluazifop-P 52.5 g ae/ha): 0% | Visual Growth Reduction (%) 14 DAA Obs ([3]; Fluazifop-P 105 g ae/ha): 0% | Visual Growth Reduction (%) 14 DAA Obs ([3]; Fluazifop-P 210 g ae/ha): 0% | Visual Growth Reduction (%) 14 DAA Obs ([11]; Fluazifop-P 52.5 g ae/ha): 0% | Visual Growth Reduction (%) 14 DAA Obs ([11]; Fluazifop-P 105 g ae/ha): 0% | Visual Growth Reduction (%) 14 DAA Obs ([11]; Fluazifop-P 210 g ae/ha): 0% | Visual Growth Reduction (%) 14 DAA Obs ([12]; Fluazifop-P 52.5 g ae/ha): 0% | Visual Growth Reduction (%) 14 DAA Obs ([12]; Fluazifop-P 105 g ae/ha): 0% | Visual Growth Reduction (%) 14 DAA Obs ([12]; Fluazifop-P 210 g ae/ha): 70% | Visual Growth Reduction (%) 14 DAA Obs ([4]; Fluazifop-P 52.5 g ae/ha): 0% | Visual Growth Reduction (%) 14 DAA Obs ([4]; Fluazifop-P 105 g ae/ha): 0% | Visual Growth Reduction (%) 14 DAA Obs ([4]; Fluazifop-P 210 g ae/ha): 0% | Visual Growth Reduction (%) 14 DAA Obs ([13]; Fluazifop-P 52.5 g ae/ha): 0% | Visual Growth Reduction (%) 14 DAA Obs ([13]; Fluazifop-P 105 g ae/ha): 0% | Visual Growth Reduction (%) 14 DAA Obs ([13]; Fluazifop-P 210 g ae/ha): 0% | Visual Growth Reduction (%) 14 DAA Obs ([5]; Fluazifop-P 52.5 g ae/ha): 0% | Visual Growth Reduction (%) 14 DAA Obs ([5]; Fluazifop-P 105 g ae/ha): 0% | Visual Growth Reduction (%) 14 DAA Obs ([5]; Fluazifop-P 210 g ae/ha): 0% | Visual Growth Reduction (%) 14 DAA Obs ([14]; Fluazifop-P 52.5 g ae/ha): 80% | Visual Growth Reduction (%) 14 DAA Obs ([14]; Fluazifop-P 105 g ae/ha): 80% | Visual Growth Reduction (%) 14 DAA Obs ([14]; Fluazifop-P 210 g ae/ha): 90% | Visual Growth Reduction (%) 14 DAA Obs ([6]; Fluazifop-P 52.5 g ae/ha): 0% | Visual Growth Reduction (%) 14 DAA Obs ([6]; Fluazifop-P 105 g ae/ha): 0% | Visual Growth Reduction (%) 14 DAA Obs ([6]; Fluazifop-P 210 g ae/ha): 0% | Visual Growth Reduction (%) 14 DAA Obs ([15]; Fluazifop-P 52.5 g ae/ha): 70% | Visual Growth Reduction (%) 14 DAA Obs ([15]; Fluazifop-P 105 g ae/ha): 90% | Visual Growth Reduction (%) 14 DAA Obs ([15]; Fluazifop-P 210 g ae/ha): 100% | Visual Growth Reduction (%) 14 DAA Obs ([16]; Fluazifop-P 52.5 g ae/ha): 0% | Visual Growth Reduction (%) 14 DAA Obs ([16]; Fluazifop-P 105 g ae/ha): 0% | Visual Growth Reduction (%) 14 DAA Obs ([16]; Fluazifop-P 210 g ae/ha): 0% | Visual Growth Reduction (%) 14 DAA Obs ([7]; Fluazifop-P 52.5 g ae/ha): 0% | Visual Growth Reduction (%) 14 DAA Obs ([7]; Fluazifop-P 105 g ae/ha): 0% | Visual Growth Reduction (%) 14 DAA Obs ([7]; Fluazifop-P 210 g ae/ha): 0%

Reference: patent US20140213446A1, “HERBICIDAL COMPOSITIONS AND METHODS USING COMBINATIONS OF 4-AMINO-3-CHLORO-6-(4-CHLORO-2-FLUORO-3-METHOXYPHENYL)PYRIDINE-2-CARBOXYLIC ACID OR A DERIVATIVE THEREOF AND AN ARYLOXYPHENOXY PROPIONATE ACCASE INHIBITOR HERBICIDE” (DOW AGROSCIENCES LLC, priority 2013, published 2014)
